Source: US9243037B2, “Gramicidin a mutants that function as antibiotics with improved solubility and reduced toxicity” (Trustees of Boston College, priority 2011, dated 2016)
Where two headings read alike, the source gives them in different places. Where a SMILES comes first, the peptide text is derived from it. [ ]: non-standard residue; d: D form. The star is where a group is joined. dLys(Me3) = C[N+](C)(C)CCCC[C@@H](N)C(=O)O; NHCH2CH2OH = OCCN*; For = O=C*

Legend:
[1] = Peptide binding onto membranes (Trp fluorescence); details: neutral POPC vesicles; in words
[2] = Trp absorbance @ 280 nm; 10 mM PBS, pH 7.0, 1% DMSO; values taken from ref; cited from earlier work
[3] = system: Bacillus subtilis (ATCC 663)
physchem = assay type: physicochemical; details: for solubility kinetic at 30 min: pH 7, aqueous with cosolvent or surfactant or cyclodextrin
Protocol: Peptide solubility in 10 mM HEPES buffer with 1% DMSO was measured by monitoring tryptophan absorbance. A concentrated (6.0-8.0 mM) peptide stock solution in DMSO was diluted 100 times (5 μL of the stock into 500 jtl of 10 mM HEPES buffer, pH 7.0). The mixture was sonicated for 30 mins and then subject to centrifugation (14,000 rpm, 10 mins) to remove possible precipitate. The supernatant (400 μL) was transferred to a quartz cuvette and the peptide concentration was determined by tryptophan absorbance at 280 nm (ε=22760 M−1 cm-1). The UV/Vis spectra of the supernatant can be seen in FIG. 1 and FIG. 5.

[4] = system: human red blood cells (hRBCs); test: K+ leakage from hRBCs (flame atomic emission); assay type: cell-based
Protocol: The rest of supernatant (1.2 mL) from each sample prepared as described in the hemoglobin leakage assay was transferred into a new sterile eppendorf tube and subject to the K+ concentration measurement using a flame-atomic emission spectrometer (λem=766.5 nm, Perkin Elmer Atomic absorption Spectrometer 3100, acetylene/air flame). Three readings were taken for each sample and averaged as final results. The fraction of K+ leakage from hRBCs was calculated as percentage K+ leaked=100·(I776.5,peptide−I776.5,DMSO)/(I776.5,complete lysis−I776.5,DMSO).

[5] = Peptide binding onto membranes (Trp fluorescence); details: negatively charged POPC/POPG vesicles; in words
[6] = system: Staphylococcus aureus (ATCC 6538)
[7] = system: Streptococcus pyogenes (ATCC 19615)
[8] = system: human red blood cells (hRBCs); test: Haemoglobin release from human red blood cells; assay type: cell-based
Protocol: Fresh human red blood cells (hRBCs) were centrifuged at 3500 rpm and washed with PBS buffer until the supernatant was clear. The hRBCs were then resuspended and diluted to a final concentration of 1% (v/v) in PBS and used immediately. 15 μL of serial dilution (2-fold) of peptides in DMSO or DMSO alone as a negative control were added to 1.5 mL of hRBCs in PBS. The resulting mixture was gently shaken to mix well and incubated at 37° C. for 1 hr, followed by centrifugation at 3500 rpm for 10 min using tabletop centrifuge. Aliquots (50 μL) of the supernatant (in triplicates) were transferred into a sterile 96-well plate containing 50 μL of H2O in each well. Release of hemoglobin was monitored at 415 nm using a microtiter plate reader. Percentage hemolysis was calculated using percentage hemolysis=100·(A415, peptide-A415,DMSO)/(A415, complete hemolysis-A415, DMSO), where complete hemolysis is achieved by mixing hRBCs with 1% TritonX-100.

| SMILES | solubility kinetic at 30 min (physchem) [µM] | KC50 [4] | Toxicity KC50 [4] [µM] | HC50 [8] | haemoglobin leakage from hRBCs [8] | Toxicity HC50 ([8]; red cells of human) [µM] | Minimum Inhibition Concentration S. Pyogenesis ([7]; ATCC 19615) [µM] | Minimum Inhibition Concentration B. Subtilius ([3]; ATCC 663) [µM] | Minimum Inhibition Concentration S. Aureus ([6]; ATCC 6538) [µM] | other results |
| --- | --- | --- | --- | --- | --- | --- | --- | --- | --- | --- |
| CC(C)C[C@@H](NC(=O)[C@H](C)NC(=O)CNC(=O)[C@@H](NC=O)C(C)C)C(=O)N[C@@H](C)C(=O)N[C@@H](C(=O)N[C@H](C(=O)N[C@@H](C(=O)N[C@@H](Cc1c[nH]c2ccccc12)C(=O)N[C@H](CCCCN)C(=O)N[C@@H](Cc1c[nH]c2ccccc12)C(=O)N[C@H](CC(C)C)C(=O)N[C@@H](Cc1c[nH]c2ccccc12)C(=O)N[C@H](CC(C)C)C(=O)N[C@@H](Cc1c[nH]c2ccccc12)C(=O)NCCO)C(C)C)C(C)C)C(C)C (racemic) [gA-1, formyl-V-G-A-dL-A-dV-V-dV-W-dK-W-dL-W-dL-W-NHCH2CH2OH] | – | – | – | – | – | – | – | – | – | apparent dissociation constant (Kd) / binding [1]: apparent Kd values close to that of gA-WT; Sat. Conc, Lys series [2]: 10 µM; MICs B. Subtilius ([3]; ATCC 663): 5 µM; MIC relative to wild-type Gramicidin A ([3]; B. subtilis): equivalent to that of wild-type Gramicidin A; water solubility, fold higher than wild-type Gramicidin A (physchem): ~200 fold; KC50 (50% K+ ion leakage relative to 1% TritonX-100) [4]: 0.01 µM; peptide concentration for 50% K+ ion leakage, fold greater than wild-type Gramicidin A [4]: ~100 fold; apparent dissociation constant (Kd) / binding [5]: apparent Kd values close to that of gA-WT; MICs S. Aureus ([6]; ATCC 6538): 2.5 µM; MIC relative to wild-type Gramicidin A ([6]; S. Aureus): equivalent to that of wild-type Gramicidin A; MICs S. Pyogenes ([7]; ATCC 19615): 0.16 µM; MIC relative to wild-type Gramicidin A ([7]; S. Pyogenes): equivalent to that of wild-type Gramicidin A; HC50 (50% haemoglobin leakage relative to 1% TritonX-100) ([8]; red cells of human): 5~10 μM |
| CC(C)C[C@@H](NC(=O)[C@H](C)NC(=O)CNC(=O)[C@@H](NC=O)C(C)C)C(=O)N[C@@H](C)C(=O)N[C@@H](C(=O)N[C@H](C(=O)N[C@@H](C(=O)N[C@@H](Cc1c[nH]c2ccccc12)C(=O)N[C@H](CCCC[N+](C)(C)C)C(=O)N[C@@H](Cc1c[nH]c2ccccc12)C(=O)N[C@H](CCCC[N+](C)(C)C)C(=O)N[C@@H](Cc1c[nH]c2ccccc12)C(=O)N[C@H](CCCC[N+](C)(C)C)C(=O)N[C@@H](Cc1c[nH]c2ccccc12)C(=O)NCCO)C(C)C)C(C)C)C(C)C [10, 12, 14M] (For-VGA[dL]A[dV]V[dV]W[dLys(Me3)]W[dLys(Me3)]W[dLys(Me3)]W-NHCH2CH2OH) | 55 | >95 | >95 | >95 | [c] HC50 is the peptide concentration required to cause 50% of haemoglobin leakage from human red blood cells compared to the lysis of same amount cells by 1% TritonX-100. No haemoglogin leakage was observed in the cases of 10, 14M, 10, 12M or 10, 12, 14M at the concentration range tested. | >95 | – | – | – | – |
| CC(C)C[C@@H](NC(=O)[C@H](C)NC(=O)CNC(=O)[C@@H](NC=O)C(C)C)C(=O)N[C@@H](C)C(=O)N[C@@H](C(=O)N[C@H](C(=O)N[C@@H](C(=O)N[C@@H](Cc1c[nH]c2ccccc12)C(=O)N[C@H](CCCC[N+](C)(C)C)C(=O)N[C@@H](Cc1c[nH]c2ccccc12)C(=O)N[C@H](CCCC[N+](C)(C)C)C(=O)N[C@@H](Cc1c[nH]c2ccccc12)C(=O)N[C@H](CC(C)C)C(=O)N[C@@H](Cc1c[nH]c2ccccc12)C(=O)NCCO)C(C)C)C(C)C)C(C)C [10, 12M] (For-VGA[dL]A[dV]V[dV]W[dLys(Me3)]W[dLys(Me3)]W[dL]W-NHCH2CH2OH) | 27 | >10 | >10 | >10 | [c] HC50 is the peptide concentration required to cause 50% of haemoglobin leakage from human red blood cells compared to the lysis of same amount cells by 1% TritonX-100. No haemoglogin leakage was observed in the cases of 10, 14M, 10, 12M or 10, 12, 14M at the concentration range tested. | >10 | > 10 | – | – | EC50 ([7]; ATCC 19615): 1.25 µM |
| CC(C)C[C@@H](NC(=O)[C@H](C)NC(=O)CNC(=O)[C@@H](NC=O)C(C)C)C(=O)N[C@@H](C)C(=O)N[C@@H](C(=O)N[C@H](C(=O)N[C@@H](C(=O)N[C@@H](Cc1c[nH]c2ccccc12)C(=O)N[C@H](CCCC[N+](C)(C)C)C(=O)N[C@@H](Cc1c[nH]c2ccccc12)C(=O)N[C@H](CC(C)C)C(=O)N[C@@H](Cc1c[nH]c2ccccc12)C(=O)N[C@H](CCCC[N+](C)(C)C)C(=O)N[C@@H](Cc1c[nH]c2ccccc12)C(=O)NCCO)C(C)C)C(C)C)C(C)C [10, 14M] (For-VGA[dL]A[dV]V[dV]W[dLys(Me3)]W[dL]W[dLys(Me3)]W-NHCH2CH2OH) | 30 | 20 | 20 | >24 | [c] HC50 is the peptide concentration required to cause 50% of haemoglobin leakage from human red blood cells compared to the lysis of same amount cells by 1% TritonX-100. No haemoglogin leakage was observed in the cases of 10, 14M, 10, 12M or 10, 12, 14M at the concentration range tested. | >24 | 1.25 | 2.5 | > 10 | HC50 printed in the S. Aureus MIC cell ([6]; ATCC 6538): 1.25 µM |
| CC(C)C[C@@H](NC(=O)[C@H](C)NC(=O)CNC(=O)[C@@H](NC=O)C(C)C)C(=O)N[C@@H](C)C(=O)N[C@@H](C(=O)N[C@H](C(=O)N[C@@H](C(=O)N[C@@H](Cc1c[nH]c2ccccc12)C(=O)N[C@H](CCCC[N+](C)(C)C)C(=O)N[C@@H](Cc1c[nH]c2ccccc12)C(=O)N[C@H](CC(C)C)C(=O)N[C@@H](Cc1c[nH]c2ccccc12)C(=O)N[C@H](CC(C)C)C(=O)N[C@@H](Cc1c[nH]c2ccccc12)C(=O)NCCO)C(C)C)C(C)C)C(C)C [10M] (For-VGA[dL]A[dV]V[dV]W[dLys(Me3)]W[dL]W[dL]W-NHCH2CH2OH) | 4.3 | 0.04 | 0.04 | 19 | – | 19 | 0.15 | 2.5 | 2.5 | – |
| CC(C)C[C@@H](NC(=O)[C@H](C)NC(=O)CNC(=O)[C@@H](NC=O)C(C)C)C(=O)N[C@@H](C)C(=O)N[C@@H](C(=O)N[C@H](C(=O)N[C@@H](C(=O)N[C@@H](Cc1c[nH]c2ccccc12)C(=O)N[C@H](CC(C)C)C(=O)N[C@@H](Cc1c[nH]c2ccccc12)C(=O)N[C@H](CCCC[N+](C)(C)C)C(=O)N[C@@H](Cc1c[nH]c2ccccc12)C(=O)N[C@H](CC(C)C)C(=O)N[C@@H](Cc1c[nH]c2ccccc12)C(=O)NCCO)C(C)C)C(C)C)C(C)C [12MeK] (For-VGA[dL]A[dV]V[dV]W[dL]W[dLys(Me3)]W[dL]W-NHCH2CH2OH) | – | – | – | – | – | – | – | – | – | KC50 ([4]; Table 8): 0.2; HC50 ([8]; Table 8): >10 |
| CC(C)C[C@@H](NC(=O)[C@H](C)NC(=O)CNC(=O)[C@@H](NC=O)C(C)C)C(=O)N[C@@H](C)C(=O)N[C@@H](C(=O)N[C@H](C(=O)N[C@@H](C(=O)N[C@@H](Cc1c[nH]c2ccccc12)C(=O)N[C@H](CC(C)C)C(=O)N[C@@H](Cc1c[nH]c2ccccc12)C(=O)N[C@H](CC(C)C)C(=O)N[C@@H](Cc1c[nH]c2ccccc12)C(=O)N[C@H](CCCC[N+](C)(C)C)C(=O)N[C@@H](Cc1c[nH]c2ccccc12)C(=O)NCCO)C(C)C)C(C)C)C(C)C [14M] (For-VGA[dL]A[dV]V[dV]W[dL]W[dL]W[dLys(Me3)]W-NHCH2CH2OH) | 3.6 | 0.015 | 0.015 | 24 | – | 24 | 0.078 | 2.5 | 1.25 to 2.5 | – |
| CC(C)C[C@@H](NC(=O)[C@H](C)NC(=O)CNC(=O)[C@@H](NC=O)C(C)C)C(=O)N[C@@H](C)C(=O)N[C@@H](C(=O)N[C@H](C(=O)N[C@@H](C(=O)N[C@@H](Cc1c[nH]c2ccccc12)C(=O)N[C@H](CC(C)C)C(=O)N[C@@H](Cc1c[nH]c2ccccc12)C(=O)N[C@H](CCCC[N+](C)(C)C)C(=O)N[C@@H](Cc1c[nH]c2ccccc12)C(=O)N[C@H](CCCC[N+](C)(C)C)C(=O)N[C@@H](Cc1c[nH]c2ccccc12)C(=O)NCCO)C(C)C)C(C)C)C(C)C [1214MeK] (For-VGA[dL]A[dV]V[dV]W[dL]W[dLys(Me3)]W[dLys(Me3)]W-NHCH2CH2OH) | – | – | – | – | – | – | – | – | – | KC50 ([4]; Table 8): >10 |
